Source: patent US20240270762A1, “PENICILLIN-BINDING PROTEIN INHIBITORS” (priority 2021, published 2024)
Converted amounts (≈) assume the structure as drawn.

Columns and labels:
P. aeruginosa ATCC 27853 = experiment: microbe, parasite or virus in culture; format: cell-based; details: Pseudomonas aeruginosa, ATCC27853, read-out: MIC P. aeruginosa ATCC 27853
N. gonorrhoeae CDC-0197 = experiment: Liquid broth MIC in Fastidious broth; details: Neisseria gonorrhoeae, CDC0197, read-out: Minimum Inhibitory Concentration (MIC), N. gonorrhoeae CDC-0197
N. gonorrhoeae WHO K = experiment: Liquid broth MIC in Fastidious broth; details: Neisseria gonorrhoeae, read-out: Minimum Inhibitory Concentration (MIC), N. gonorrhoeae WHO K
N. gonorrhoeae WHO Q = experiment: Liquid broth MIC in Fastidious broth; details: Neisseria gonorrhoeae, read-out: Minimum Inhibitory Concentration (MIC), N. gonorrhoeae WHO Q
A. baumannii ATCC 19606 = experiment: microbe, parasite or virus in culture; format: cell-based; details: Acinetobacter baumannii, ATCC19606, read-out: MIC, A. baumannii ATCC 19606
N. gonorrhoeae WHO Z = experiment: Liquid broth MIC in Fastidious broth; details: Neisseria gonorrhoeae, read-out: Minimum Inhibitory Concentration (MIC), N. gonorrhoeae WHO Z
N. gonorrhoeae FA1090 = experiment: Liquid broth MIC in Fastidious broth; details: Neisseria gonorrhoeae, FA1090, read-out: Minimum Inhibitory Concentration (MIC), N. gonorrhoeae FA 1090
[1] = biological target: T1, PBP2 from Neisseria gonorrhoeae (FA19) (Neisseria gonorrhoeae, UniProt P08149); experiment: Bocillin-FL fluorescence polarization competition binding, N. gonorrhoeae PBP2; details: fluorescence polarization competition binding assay using Bocillin-FL, read-out: N. gonorrhoeae PBP2 Potency
T1 construct: made in house
T1 sequence (P08149 whole entry): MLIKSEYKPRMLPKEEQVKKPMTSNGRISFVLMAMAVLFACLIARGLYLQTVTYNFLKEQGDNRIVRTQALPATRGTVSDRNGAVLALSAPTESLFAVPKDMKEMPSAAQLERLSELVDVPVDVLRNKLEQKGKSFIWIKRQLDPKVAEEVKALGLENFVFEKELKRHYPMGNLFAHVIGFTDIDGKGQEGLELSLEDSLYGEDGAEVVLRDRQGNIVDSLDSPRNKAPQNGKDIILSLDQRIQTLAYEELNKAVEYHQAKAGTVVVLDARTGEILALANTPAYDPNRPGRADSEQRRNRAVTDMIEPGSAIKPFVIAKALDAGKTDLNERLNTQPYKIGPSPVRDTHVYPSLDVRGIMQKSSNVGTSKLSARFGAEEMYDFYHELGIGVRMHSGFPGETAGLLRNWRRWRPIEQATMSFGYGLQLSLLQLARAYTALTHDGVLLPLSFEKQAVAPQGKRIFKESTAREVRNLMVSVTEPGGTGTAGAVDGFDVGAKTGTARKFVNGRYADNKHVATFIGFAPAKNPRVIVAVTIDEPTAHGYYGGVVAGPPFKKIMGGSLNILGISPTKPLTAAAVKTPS
From the text: To determine the ability of boronic acid-based test PBP inhibitors to bind Penicillin Binding Proteins (PBPs), Bocillin-FL (fluorescently-labeled penicillin V; ThermoFisher Scientific) was used in a fluorescence polarization (FP) competition binding assay to assess inhibitor binding to PBP3 from Escherichia coli (K-12), PBP3 from Pseudomonas aeruginosa (PAO1), PBP1a and PBP3 from Acinetobacter baumannii (ATCC 19606), and PBP2 from Neisseria gonorrhoeae (FA19). PBPs were cloned and purified as described previously (E. coli PBP3, King, D. T, et al., ACS Infectious Diseases 2015, 1, 175-184; P. aeruginosa PBP3, Han et. al., PNAS 2010, 107 (51), 22002-22007; A. baumannii PBPs, Penwell et. al., Antimicrob. Agents Chemother. 2015, 59 (3), 1680-1689; N. gonorrhoeae PBP2, Singh et. al., J. Biol. Chem. 2019, 294 (38), 14020-14032). To establish assay conditions for competition binding, enzyme titration/saturation binding experiments were initially performed. Bocillin-FL was prepared at 0.2 μM in a buffer comprised of 50 mM Hepes (pH 8.0), 300 mM NaCl and 10% (v/v) glycerol for reactions with E. coli, P. aeruginosa and N. gonorrhoeae PBPs, and 25 mM Tris (pH 8.0), 200 mM NaCl, 10% (v/v) glycerol and 0.005% (v/v) Tween 20 for reactions with A. baumannii PBPs. Saturation binding was performed by mixing 40 μl of PBP solutions ranging in concentrations from 0-24 μM with 40 μl of the 0.2 μM Bocillin-FL solution, in individual wells of a black 384-well microplate. FP was measured immediately upon mixing (Excitation, 490 nm; Emission, 520 nm; g-factor, 0.96), using a Cytation3 (BioTek) microplate reader and measured continuously for up to 120 minutes. […] The competition binding assay (80 μl final volume) was validated using beta-lactams and PBPs at final concentrations of: 1.5 μM for E. coli PBP3; 0.75 μM for P. aeruginosa PBP3; 1 μM for A. baumannii PBP1a; 0.2 μM for A. baumannii PBP3; and 0.25 μM for N. gonorrhoeae PBP2. Bocillin-FL was at 0.1 μM (0.05 μM with A. baumannii PBP1a) and beta-lactam concentrations ranged from 0-1,000 μM. E. coli PBP3 was incubated with increasing concentrations of ampicillin in a black 384-well microplate (Corning) for 30 minutes. P. aeruginosa PBP3 was incubated for 15 minutes with aztreonam, whereas A. baumannii PBP1a and PBP3 were incubated for 15 minutes with meropenem, and then Bocillin-FL was added followed immediately by the FP measurement for up to 60 minutes. […] The beta-lactam potency was reported as the concentration of beta-lactam required to reduce the amount of PBP bound-Bocillin-FL by 50% (EC50). […] Binding assays for boronic acid PBP inhibitors were performed in an identical fashion for the respective PBPs.

Row | SMILES | MIC (P. aeruginosa ATCC 27853) [µg/mL] | MIC (N. gonorrhoeae CDC-0197) [µg/mL] | MIC (N. gonorrhoeae WHO K) [µg/mL] | MIC (N. gonorrhoeae WHO Q) [µg/mL] | MIC (A. baumannii ATCC 19606) [µg/mL] | MIC (N. gonorrhoeae WHO Z) [µg/mL] | MIC (N. gonorrhoeae FA1090) [µg/mL] | EC50 [1] [µM]
1 | CCN1CCN(C(=O)NC(C(=O)N[C@H]2Cc3cccc(C(=O)O)c3OB2O)c2ccc(P(=O)(O)O)c(O)c2)C(=O)C1=O (stereo partly drawn) [Example 21, (3R)-3-(2-(4-ethyl-2,3-dioxopiperazine-1-carboxamido)-2-(3-hydroxy-4-phosphonophenyl)acetamido)-2-hydroxy-3,4-dihydro-2H-benzo[e][1,2]oxaborinine-8-carboxylic acid] | 8 to 16 (≈ 13.2 to 26.5 µM) | < 1 | < 1 | < 1 | 2 to 4 (≈ 3.31 to 6.62 µM) | < 1 | < 1 | < 10
2 | CC(=O)NC(C(=O)N[C@H]1Cc2cccc(C(=O)O)c2OB1O)c1ccc(P(=O)(O)O)cc1 (stereo partly drawn) [Example 26, (3R)-3-(2-acetamido-2-(4-phosphonophenyl)acetamido)-2-hydroxy-3,4-dihydro-2H-benzo[e][1,2]oxaborinine-8-carboxylic acid] | > 128 | 16 to 32 (≈ 34.6 to 69.2 µM) | 16 to 32 (≈ 34.6 to 69.2 µM) | 16 to 32 (≈ 34.6 to 69.2 µM) | > 128 | 16 to 32 (≈ 34.6 to 69.2 µM) | 16 to 32 (≈ 34.6 to 69.2 µM) | 10 to 50
3 | O=C(O)c1cccc2c1OB(O)[C@@H](NC(=O)C(NC(=O)N1CCCC1=O)c1ccc(P(=O)(O)O)cc1)C2 (stereo partly drawn) [Example 57, (3R)-2-hydroxy-3-(2-(2-oxopyrrolidine-1-carboxamido)-2-(4-phosphonophenyl)acetamido)-3,4-dihydro-2H-benzo[e][1,2]oxaborinine-8-carboxylic acid] | > 128 | < 1 | 4 to 8 (≈ 7.53 to 15.1 µM) | 1 to 2 (≈ 1.88 to 3.76 µM) | > 128 | 1 to 2 (≈ 1.88 to 3.76 µM) | < 1 | < 10
4 | NC(C(=O)N[C@H]1Cc2ccc(F)c(C(=O)O)c2OB1O)c1ccc(P(=O)(O)O)cc1 (stereo partly drawn) [Example 14, (3R)-3-(2-amino-2-(4-phosphonophenyl)acetamido)-7-fluoro-2-hydroxy-3,4-dihydro-2H-benzo[e][1,2]oxaborinine-8-carboxylic acid] | > 128 | > 64 | > 64 | > 64 | > 128 | > 64 | > 64 | 50 to 250
5 | O=C(NC(C(=O)N[C@H]1Cc2cccc(C(=O)O)c2OB1O)c1ccc(P(=O)(O)O)cc1)c1ccccn1 (stereo partly drawn) [Example 32, (3R)-2-hydroxy-3-(2-(4-phosphonophenyl)-2-(picolinamido)acetamido)-3,4-dihydro-2H-benzo[e][1,2]oxaborinine-8-carboxylic acid] | > 128 | 1 to 2 (≈ 1.9 to 3.81 µM) | 4 to 8 (≈ 7.62 to 15.2 µM) | 1 to 2 (≈ 1.9 to 3.81 µM) | > 128 | 1 to 2 (≈ 1.9 to 3.81 µM) | < 1 | < 10
6 | Cn1cccc(C(=O)N[C@@H](C(=O)N[C@H]2Cc3cccc(C(=O)O)c3OB2O)c2ccc(P(=O)(O)O)cc2)c1=O (single isomer, unassigned) [Example 182] | > 128 | 1 to 2 (≈ 1.8 to 3.6 µM) | 4 to 8 (≈ 7.2 to 14.4 µM) | 1 to 2 (≈ 1.8 to 3.6 µM) | > 128 | 1 to 2 (≈ 1.8 to 3.6 µM) | < 1 | < 10
7 | CCN1CCN(C(=O)N[C@@H](C(=O)N[C@H]2Cc3cccc(C(=O)O)c3OB2O)c2ccc(P(C)(=O)O)cc2)C(=O)C1=O (single isomer, unassigned) [Example 47] | > 128 | 1 to 2 (≈ 1.71 to 3.41 µM) | 4 to 8 (≈ 6.82 to 13.6 µM) | 1 to 2 (≈ 1.71 to 3.41 µM) | 32 to 64 (≈ 54.6 to 109 µM) | 1 to 2 (≈ 1.71 to 3.41 µM) | < 1 | < 10
